The source of these data is ChEMBL document CHEMBL3352415, “Synthesis and biological evaluation of novel thiadiazole amides as potent Cdc25B and PTP1B inhibitors” (Bioorg Med Chem Lett, 2014).

One may read the IC50 as the concentration that inhibits the measured activity by half. The low end stands for higher potency, the high end for lower potency. Usually inhibition stands for the percentage by which the read-out fell short of the control.

The target of assay [1] is T1, Tyrosine-protein phosphatase non-receptor type 1 (Homo sapiens, UniProt P18031).
T1 sequence (P18031 whole entry): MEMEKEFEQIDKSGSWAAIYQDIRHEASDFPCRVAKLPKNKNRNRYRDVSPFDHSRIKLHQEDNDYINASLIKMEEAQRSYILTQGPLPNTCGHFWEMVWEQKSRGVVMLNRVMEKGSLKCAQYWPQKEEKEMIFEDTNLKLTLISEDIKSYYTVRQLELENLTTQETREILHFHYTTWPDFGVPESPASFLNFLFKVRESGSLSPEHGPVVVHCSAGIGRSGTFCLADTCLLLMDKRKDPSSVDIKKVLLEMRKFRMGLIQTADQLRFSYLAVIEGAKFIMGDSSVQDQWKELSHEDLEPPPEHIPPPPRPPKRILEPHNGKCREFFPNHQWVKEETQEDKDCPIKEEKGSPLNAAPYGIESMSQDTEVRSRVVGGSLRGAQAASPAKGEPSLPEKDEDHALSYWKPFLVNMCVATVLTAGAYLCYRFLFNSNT
In words: Inhibition of PTP1B (unknown origin).

Assay [2] concerns the target T2, Tyrosine-protein phosphatase non-receptor type 11 (Homo sapiens, UniProt Q06124).
T2 sequence (Q06124 whole entry): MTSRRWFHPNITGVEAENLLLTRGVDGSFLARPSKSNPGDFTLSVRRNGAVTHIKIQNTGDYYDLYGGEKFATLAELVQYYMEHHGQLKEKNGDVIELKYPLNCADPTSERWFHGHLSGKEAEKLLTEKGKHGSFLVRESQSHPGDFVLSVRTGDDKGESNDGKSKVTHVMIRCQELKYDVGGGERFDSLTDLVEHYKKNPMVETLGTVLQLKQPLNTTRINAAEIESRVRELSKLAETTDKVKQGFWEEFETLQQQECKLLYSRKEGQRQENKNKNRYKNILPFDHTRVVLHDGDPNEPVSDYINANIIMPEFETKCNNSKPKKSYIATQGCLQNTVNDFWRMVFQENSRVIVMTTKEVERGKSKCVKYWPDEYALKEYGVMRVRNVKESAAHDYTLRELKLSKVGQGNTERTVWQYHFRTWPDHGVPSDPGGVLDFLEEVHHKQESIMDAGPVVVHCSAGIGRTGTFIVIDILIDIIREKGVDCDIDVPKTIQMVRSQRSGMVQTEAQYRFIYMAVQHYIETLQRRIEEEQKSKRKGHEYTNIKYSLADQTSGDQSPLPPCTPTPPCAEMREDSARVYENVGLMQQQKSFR
The assay can be described thus: Inhibition of SHP2 (unknown origin).

In assay [3] the target is T3, Tyrosine-protein phosphatase non-receptor type 2 (Homo sapiens, UniProt P17706).
T3 sequence (P17706 whole entry): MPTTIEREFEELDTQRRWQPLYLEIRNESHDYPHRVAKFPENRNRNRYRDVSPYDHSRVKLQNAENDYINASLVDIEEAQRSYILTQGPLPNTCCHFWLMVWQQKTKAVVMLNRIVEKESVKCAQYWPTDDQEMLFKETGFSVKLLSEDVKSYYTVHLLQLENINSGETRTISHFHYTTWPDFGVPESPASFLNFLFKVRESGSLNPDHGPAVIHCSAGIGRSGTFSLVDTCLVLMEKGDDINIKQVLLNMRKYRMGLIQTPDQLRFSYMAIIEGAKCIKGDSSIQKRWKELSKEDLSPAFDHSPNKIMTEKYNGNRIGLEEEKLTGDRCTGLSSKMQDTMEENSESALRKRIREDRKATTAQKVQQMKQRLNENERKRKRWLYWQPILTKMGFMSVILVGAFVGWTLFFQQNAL
In words: Inhibition of TCPTP (unknown origin).

Assay [4] deals with T4, Tyrosine-protein phosphatase non-receptor type 1 (Homo sapiens) (UniProt P18031).
T4 sequence (whole entry): T1 sequence (P18031 whole entry)
The assay can be described thus: Inhibition of PTP1B (unknown origin) at 5 ug/ml.

The target in assay [5] is Tyrosine-protein phosphatase non-receptor type 6 (Homo sapiens, UniProt P29350). The assay can be described thus: Inhibition of SHP1 (unknown origin).
Tyrosine-protein phosphatase non-receptor type 6, sequence (P29350 whole entry): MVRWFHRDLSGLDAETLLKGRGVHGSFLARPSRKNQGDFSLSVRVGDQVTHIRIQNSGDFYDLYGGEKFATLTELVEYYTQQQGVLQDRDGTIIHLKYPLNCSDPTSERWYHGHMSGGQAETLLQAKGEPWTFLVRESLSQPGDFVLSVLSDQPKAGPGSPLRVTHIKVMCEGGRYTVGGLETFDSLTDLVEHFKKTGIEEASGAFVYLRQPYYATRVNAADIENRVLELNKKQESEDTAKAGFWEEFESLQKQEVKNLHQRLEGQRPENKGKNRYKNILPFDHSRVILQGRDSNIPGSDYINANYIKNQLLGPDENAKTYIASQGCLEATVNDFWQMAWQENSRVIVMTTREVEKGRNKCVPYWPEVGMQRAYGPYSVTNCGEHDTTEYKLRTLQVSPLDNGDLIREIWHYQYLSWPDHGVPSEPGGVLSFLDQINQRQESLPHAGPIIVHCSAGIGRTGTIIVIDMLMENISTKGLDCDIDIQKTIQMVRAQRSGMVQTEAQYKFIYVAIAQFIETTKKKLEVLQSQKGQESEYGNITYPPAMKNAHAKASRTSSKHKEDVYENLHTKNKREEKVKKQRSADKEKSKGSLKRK
The target of assay [6] is T5, M-phase inducer phosphatase 2 (Homo sapiens, UniProt P30305).
T5 sequence (P30305 whole entry): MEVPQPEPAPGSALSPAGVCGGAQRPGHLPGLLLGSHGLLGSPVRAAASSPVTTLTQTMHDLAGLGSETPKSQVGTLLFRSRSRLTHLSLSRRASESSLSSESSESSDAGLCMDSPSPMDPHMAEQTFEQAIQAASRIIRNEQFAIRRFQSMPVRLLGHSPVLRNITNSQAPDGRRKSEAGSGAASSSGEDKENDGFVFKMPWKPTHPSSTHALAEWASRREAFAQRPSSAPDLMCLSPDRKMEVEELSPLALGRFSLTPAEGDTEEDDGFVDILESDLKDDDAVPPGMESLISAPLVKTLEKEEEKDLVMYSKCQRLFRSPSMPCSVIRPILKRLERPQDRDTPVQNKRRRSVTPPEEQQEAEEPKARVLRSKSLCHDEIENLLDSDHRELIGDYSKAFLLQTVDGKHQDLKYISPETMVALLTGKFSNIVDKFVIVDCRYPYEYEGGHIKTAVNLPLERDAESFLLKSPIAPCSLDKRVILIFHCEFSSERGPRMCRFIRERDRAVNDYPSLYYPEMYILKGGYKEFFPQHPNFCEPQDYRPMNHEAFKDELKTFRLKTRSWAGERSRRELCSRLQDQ
The assay can be described thus: Inhibition of Cdc25B (unknown origin).

Assay [7] concerns the target T6, M-phase inducer phosphatase 2 (Homo sapiens) (UniProt P30305).
T6 sequence (whole entry): T5 sequence (P30305 whole entry)
In words: Inhibition of Cdc25B (unknown origin) at 5 ug/ml.

Assay [8] deals with Receptor-type tyrosine-protein phosphatase F (Homo sapiens, UniProt P10586). The assay can be described thus: Inhibition of LAR (unknown origin).
Receptor-type tyrosine-protein phosphatase F, sequence (P10586 whole entry): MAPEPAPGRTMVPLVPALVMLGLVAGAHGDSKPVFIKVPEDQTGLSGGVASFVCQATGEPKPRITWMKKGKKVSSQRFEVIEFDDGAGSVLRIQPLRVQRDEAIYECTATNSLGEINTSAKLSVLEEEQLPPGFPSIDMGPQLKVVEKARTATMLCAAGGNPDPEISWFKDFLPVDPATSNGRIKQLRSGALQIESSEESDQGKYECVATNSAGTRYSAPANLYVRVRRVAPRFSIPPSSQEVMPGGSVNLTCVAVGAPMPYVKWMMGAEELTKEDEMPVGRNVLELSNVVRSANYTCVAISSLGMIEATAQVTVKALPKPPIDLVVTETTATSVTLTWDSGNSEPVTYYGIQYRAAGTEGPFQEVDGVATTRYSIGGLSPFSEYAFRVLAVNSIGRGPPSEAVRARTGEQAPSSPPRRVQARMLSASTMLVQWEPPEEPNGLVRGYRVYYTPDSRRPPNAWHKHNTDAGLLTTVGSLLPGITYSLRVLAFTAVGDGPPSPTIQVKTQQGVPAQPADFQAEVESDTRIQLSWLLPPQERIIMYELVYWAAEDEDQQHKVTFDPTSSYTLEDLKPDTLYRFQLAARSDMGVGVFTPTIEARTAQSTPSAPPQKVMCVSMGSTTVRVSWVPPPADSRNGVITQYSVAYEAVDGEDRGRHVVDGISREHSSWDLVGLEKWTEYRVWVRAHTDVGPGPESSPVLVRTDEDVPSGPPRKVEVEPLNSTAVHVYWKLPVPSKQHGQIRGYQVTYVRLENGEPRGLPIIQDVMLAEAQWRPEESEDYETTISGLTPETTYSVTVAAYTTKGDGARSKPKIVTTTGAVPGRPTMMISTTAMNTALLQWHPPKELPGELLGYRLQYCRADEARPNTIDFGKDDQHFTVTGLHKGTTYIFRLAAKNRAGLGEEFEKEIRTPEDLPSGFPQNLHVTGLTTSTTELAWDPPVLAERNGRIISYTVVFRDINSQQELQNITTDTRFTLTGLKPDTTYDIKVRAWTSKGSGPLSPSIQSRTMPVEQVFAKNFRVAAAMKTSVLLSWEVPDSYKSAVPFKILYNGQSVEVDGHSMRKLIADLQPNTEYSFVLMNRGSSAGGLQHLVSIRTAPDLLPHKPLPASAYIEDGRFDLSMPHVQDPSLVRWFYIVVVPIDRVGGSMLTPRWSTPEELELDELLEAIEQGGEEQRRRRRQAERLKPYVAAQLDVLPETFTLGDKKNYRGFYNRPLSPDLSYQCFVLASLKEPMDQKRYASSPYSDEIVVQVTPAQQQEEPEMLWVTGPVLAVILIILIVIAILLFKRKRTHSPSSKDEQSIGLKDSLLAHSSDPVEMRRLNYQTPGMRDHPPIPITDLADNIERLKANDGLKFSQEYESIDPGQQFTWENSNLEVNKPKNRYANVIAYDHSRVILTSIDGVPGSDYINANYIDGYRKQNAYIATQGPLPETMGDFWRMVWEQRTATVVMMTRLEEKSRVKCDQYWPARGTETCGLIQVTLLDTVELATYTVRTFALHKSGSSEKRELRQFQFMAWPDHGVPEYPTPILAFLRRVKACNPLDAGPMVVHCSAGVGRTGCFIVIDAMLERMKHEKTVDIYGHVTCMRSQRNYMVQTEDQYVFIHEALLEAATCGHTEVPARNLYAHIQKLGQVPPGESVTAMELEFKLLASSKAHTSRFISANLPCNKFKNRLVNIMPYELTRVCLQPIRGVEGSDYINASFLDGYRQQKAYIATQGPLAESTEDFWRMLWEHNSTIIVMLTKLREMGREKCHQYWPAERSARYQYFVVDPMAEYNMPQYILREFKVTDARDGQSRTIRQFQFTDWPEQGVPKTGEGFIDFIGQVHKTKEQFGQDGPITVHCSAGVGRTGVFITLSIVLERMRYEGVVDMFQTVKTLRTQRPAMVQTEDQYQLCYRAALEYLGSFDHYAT

Take `Cc1ccc(C(=O)Nc2nnc(-c3ccc(Oc4ccc([N+](=O)[O-])cc4[N+](=O)[O-])cc3)s2)cc1`: the IC50 is 10.8 µM in assay [1]; “Not Active” in assay [2]; “Not Active” in assay [3]; “Not Active” in assay [5]; 2.47 µM in assay [6]; “Not Active” in assay [8]. Further, the figures for the inhibition in assay [4] and in assay [7] were 85.3% and 94.5%, respectively.

Regarding `O=C(Nc1nnc(-c2ccc(Oc3ccc([N+](=O)[O-])cc3)cc2)s1)c1ccco1`, the IC50 in assay [1] was 11.3 µM; in assay [2], “Not Active”; in assay [3], “Not Active”; in assay [5], “Not Active”; in assay [6] it was 6.44 µM; in assay [8] it was “Not Active”. Also, the inhibition was 75.1% in assay [4] and 87.7% in assay [7].

Regarding `O=C(Nc1nnc(-c2ccc(Oc3ccc([N+](=O)[O-])cc3)cc2)s1)c1ccccc1`, the IC50 is 9.89 µM in assay [1]; “Not Active” in assay [2]; “Not Active” in assay [3]; “Not Active” in assay [5]; 7.79 µM in assay [6]; “Not Active” in assay [8]. Moreover, the inhibition stood at 79.6% in assay [4] and 86.3% in assay [7].

Turning to `O=C(Nc1nnc(-c2ccc(Oc3ccc([N+](=O)[O-])cc3)cc2)s1)c1ccc([N+](=O)[O-])cc1`, the IC50 in assay [1] is 3.6 µM; in assay [2] it was “Not Active”; in assay [3], “Not Active”; in assay [5] it was “Not Active”; in assay [6] it was 8.54 µM; in assay [8] it was “Not Active”. Further, the inhibition was 95.2% in assay [4] and 96.4% in assay [7].

As to `O=C(Nc1nnc(-c2ccc(Oc3ccc([N+](=O)[O-])cc3)cc2)s1)c1cccnc1`, the IC50 in assay [1] is 10 µM; in assay [2], “Not Active”; in assay [3], “Not Active”; in assay [5], “Not Active”; in assay [6] it was 8.01 µM; in assay [8], “Not Active”. For the same compound, the inhibition was 82.4% in assay [4] and 97% in assay [7].

`O=C(Cc1ccccc1)Nc1nnc(-c2ccc(Oc3ccc([N+](=O)[O-])cc3[N+](=O)[O-])cc2)s1`: the IC50 in assay [1] is 4.11 µM; in assay [2], “Not Active”; in assay [3], “Not Active”; in assay [5] it was “Not Active”; in assay [6], 3.29 µM; in assay [8] it was “Not Active”. Also, the inhibition was determined as 90.9% in assay [4] and 91.7% in assay [7].

Consider `COc1cccc(C(=O)Nc2nnc(-c3ccc(Oc4ccc([N+](=O)[O-])cc4[N+](=O)[O-])cc3)s2)c1`, for which the IC50 is 10.8 µM in assay [1]; “Not Active” in assay [2]; “Not Active” in assay [3]; “Not Active” in assay [5]; 8.33 µM in assay [6]; “Not Active” in assay [8]. In addition, the inhibition was found to be 86.3% in assay [4] and 92.6% in assay [7].

As to `Cc1ccccc1C(=O)Nc1nnc(-c2ccc(Oc3ccc([N+](=O)[O-])cc3)cc2)s1`, the IC50 in assay [1] was 8.05 µM; in assay [2], “Not Active”; in assay [3], “Not Active”; in assay [5] it was “Not Active”; in assay [6] it was 9.41 µM; in assay [8] it was “Not Active”. In addition, the inhibition was 60.4% in assay [4] and 94% in assay [7].

With `COc1ccc(C(=O)Nc2nnc(-c3ccc(Oc4ccc([N+](=O)[O-])cc4)cc3)s2)cc1`, the IC50 in assay [1] is 9.08 µM; in assay [2], “Not Active”; in assay [3] it was “Not Active”; in assay [5] it was “Not Active”; in assay [6], 2.77 µM; in assay [8], “Not Active”. Moreover, the inhibition came out at 72.6% in assay [4] and 88.8% in assay [7].

In the case of `O=C(Nc1nnc(-c2ccc(Oc3ccc([N+](=O)[O-])cc3[N+](=O)[O-])cc2)s1)c1ccccc1F`, the IC50 in assay [1] was 3.51 µM; in assay [2] it was “Not Active”; in assay [3] it was “Not Active”; in assay [5], “Not Active”; in assay [6], 5.42 µM; in assay [8], “Not Active”. Moreover, the inhibition worked out at 88.4% in assay [4] and 99.3% in assay [7].

Regarding `O=C(Nc1nnc(-c2ccc(Oc3ccc([N+](=O)[O-])cc3[N+](=O)[O-])cc2)s1)c1ccccc1[N+](=O)[O-]`, the IC50 in assay [1] was 8.12 µM; in assay [2], “Not Active”; in assay [3], “Not Active”; in assay [5], “Not Active”; in assay [6], 15.8 µM; in assay [8] it was “Not Active”. For the same compound, the values for the inhibition in assay [4] and in assay [7] were 87.4% and 88.3%, respectively.

Consider `O=C(Nc1nnc(-c2ccc(Oc3ccc([N+](=O)[O-])cc3)cc2)s1)c1ccccc1F`, for which the IC50 in assay [1] is 17.1 µM; in assay [2], “Not Active”; in assay [3], “Not Active”; in assay [5] it was “Not Active”; in assay [6] it was 10.2 µM; in assay [8] it was “Not Active”. The inhibition in assay [4] came to 60.6%; in assay [7], 63.6%.

Regarding `O=C(Nc1nnc(-c2ccc(Oc3ccc([N+](=O)[O-])cc3[N+](=O)[O-])cc2)s1)c1ccc([N+](=O)[O-])cc1`, the IC50 was 15.8 µM in assay [1]; “Not Active” in assay [2]; “Not Active” in assay [3]; “Not Active” in assay [5]; 9.4 µM in assay [6]; “Not Active” in assay [8]. In addition, the inhibition in assay [4] came out at 81.8%; in assay [7], 97.7%.

Regarding `COc1cc(C(=O)Nc2nnc(-c3ccc(Oc4ccc([N+](=O)[O-])cc4[N+](=O)[O-])cc3)s2)cc(OC)c1OC`, the IC50 in assay [1] was 5.24 µM; in assay [2], “Not Active”; in assay [3] it was “Not Active”; in assay [5], “Not Active”; in assay [6] it was 3.99 µM; in assay [8] it was “Not Active”. Further, the inhibition in assay [4] is 84.2%; in assay [7], 84.5%.
